Like-named read-outs stand apart in the source and are kept apart here.
How the values were obtained:
[1] = rat, in vivo, po; cited from earlier work
[2] = in vivo
Description: (§1) The LC-MS/MS analysis was carried out on an Agilent 1200 system (Agilent Corporation, USA) coupled with an API 3200 triple quadrupole mass spectrometer with a Turbo Ion Spray Ionization (ESI) source (Concord, Ontario, Canada). The Agilent 1200 system consisted of a vacuum degasser (G1322A), a binary pump (G1312A), and a Hip-ALS autosampler (G13678). Chromatographic separation was performed on an Eclipse plus C18 column (4.6 × 100 mm, 1.8 μm) with a security guard C18 column (2.1 mm × 12.5 mm, 5 μm) (Agilent, USA). The mobile phases consisted of acetonitrile (A) and formic acid aqueous solution (B). The linear gradient was 30% A-30% A (0–10 min); 30%–80% A (10–15 min); 80%–95% A (15–20 min); 95%-95% A (20–30 min). Reequilibration time after gradient elution was 5 min. The column temperature was maintained at 25°C and the flow rate was set at 0.300 mL min^−1. ESI-MS spectra were acquired in both negative and positive ion multiple reaction monitoring (MRM) mode. Data collection and peak calculations were performed by Analyst 1.4.2 software (AB MDS Sciex).
(§2) The ISs solution (10 μL) and formic acid (10 μL) were added to plasma samples (100 μL). Acetonitrile (370 μL) was used to precipitate protein. The mixed solution was swirled for 1 min and then centrifuged at 14000 rpm for 10 min. The supernatant fluid was collected and then evaporated to dryness with a stream of N2 gas in a 40°C water bath. The residue was reconstituted in 100 μL methanol, swirled for 1 min. The sample was centrifuged at 14000 rpm for 10 min. 10 μL of the supernatant was injected into the LC-MS/MS system for analysis.
(§3) Rats were fasted for 12 h with free access to water before the experiment. NXTC extracts were orally administrated to ten rats at single time dose (0.5 g kg^−1) and to ten rats at triple doses (1.5 g kg^−1). The blood samples were collected at 5, 10, 15, 30, 45, 60, 90, 120, 240, 480, 720, and 1440 min after oral administration. Blood samples (200 μL) were collected from the vein of the eye sockets into heparinized tubes after the rats were anesthetized with ethyl ether. The samples were immediately centrifuged at 7,000 rpm, 10°C for 10 min. Then the plasma samples obtained were stored at −20°C.
(§4) Some pharmacokinetic parameters were calculated by DAS1.0 software (Drug and Statistics 1.0, Medical College of Wannan, China). An appropriate model was employed to calculate the following parameters: area under the plasma concentration versus time curve from zero to last sampling time (AUC0→24 h) and infinity (AUC0→∞) and mean retention time from zero to last sampling time (MRT0→24 h). […] All data were shown as average value ± standard deviation.

[3] = Pharmacokinetic study in rats after oral administration of Naoxintong capsule (NXTC), plasma levels by HPLC-MS/MS; settings: for Detection in rat plasma after oral administration of NXTC: doses of 0.5 g kg^−1 and 1.5 g kg^−1, at the present LLOQ level; for AUC(0-t) / Cmax / Tmax / AUC(0-inf) / MRT inf / MRT last / half-life: male, Sprague-Dawley, rat, plasma, po
Description: as §1, §2, §3, §4

Row | Molecule | Detection in rat plasma after oral administration of NXTC [3] | AUC(0-inf) ([3]; 0.5 g/kg) | AUC(0-t) ([3]; 0.5 g/kg) | Cmax ([3]; 0.5 g/kg) | MRT inf ([3]; 0.5 g/kg) | MRT last ([3]; 0.5 g/kg) | Tmax ([3]; 0.5 g/kg) | half-life ([3]; 0.5 g/kg) | AUC(0-inf) ([3]; 1.5 g/kg) | AUC(0-t) ([3]; 1.5 g/kg) | Cmax ([3]; 1.5 g/kg) | MRT inf ([3]; 1.5 g/kg) | MRT last ([3]; 1.5 g/kg) | Tmax ([3]; 1.5 g/kg) | half-life ([3]; 1.5 g/kg) | other results
1 | COc1cc(/C=C/C(=O)O)ccc1O [Ferulic acid, ferulic acid] | – | – | – | – | – | – | – | – | – | – | – | – | – | – | – | mean Tmax [1]: 1.8 min; Detection in rat plasma after oral administration of NXTC [2]: could be detected; Cmax ([2]; rat, po): 12.07 ± 4.61 ng/mL; Tmax ([2]; rat, po): less than 1 h; AUC(0–24 h) ([2]; rat, po, 0.5 g/kg): 3.20 ± 1.55 ng/mL∗h; AUC(0–∞) ([2]; rat, po, 0.5 g/kg): 4.19 ± 2.30 ng/mL∗h; C max ([2]; rat, po, 0.5 g/kg): 10.93 ± 4.67 ng/mL; MRT(0–24 h) ([2]; rat, po, 0.5 g/kg): 0.28 ± 0.10 h; MRT(0–∞) ([2]; rat, po, 0.5 g/kg): 0.48 ± 0.33 h; T 1/2 ([2]; rat, po, 0.5 g/kg): 0.20 ± 0.19 h; T max ([2]; rat, po, 0.5 g/kg): 0.17 ± 0.00 h; AUC(0–24 h) ([2]; rat, po, 1.5 g/kg): 8.33 ± 3.87 ng/mL∗h; AUC(0–∞) ([2]; rat, po, 1.5 g/kg): 14.4 ± 12.8 ng/mL∗h; C max ([2]; rat, po, 1.5 g/kg): 12.07 ± 4.61 ng/mL; MRT(0–24 h) ([2]; rat, po, 1.5 g/kg): 0.81 ± 0.38 h; MRT(0–∞) ([2]; rat, po, 1.5 g/kg): 3.80 ± 6.11 h; T 1/2 ([2]; rat, po, 1.5 g/kg): 0.42 ± 0.15 h; T max ([2]; rat, po, 1.5 g/kg): 0.19 ± 0.04 h
2 | salvianolic acid B | not detected | – | – | – | – | – | – | – | – | – | – | – | – | – | – | –
3 | N#C[C@H](O[C@@H]1O[C@H](CO[C@@H]2O[C@H](CO)[C@@H](O)[C@H](O)[C@H]2O)[C@@H](O)[C@H](O)[C@H]1O)c1ccccc1 [Amygdalin, amygdalin] | not detected | – | – | – | – | – | – | – | – | – | – | – | – | – | – | –
4 | CC(C)(O)[C@@H]1CC[C@](C)([C@H]2[C@@H](O)C[C@@]3(C)[C@@H]4C[C@H](O[C@@H]5O[C@H](CO)[C@@H](O)[C@H](O)[C@H]5O)[C@H]5C(C)(C)[C@@H](O[C@@H]6OC[C@@H](O)[C@H](O)[C@H]6O)CC[C@@]56C[C@@]46CC[C@]23C)O1 [Astragaloside IV, astragaloside IV] | not detected | – | – | – | – | – | – | – | – | – | – | – | – | – | – | –
5 | Cc1coc2c1C(=O)C(=O)c1c-2ccc2c1CCCC2(C)C [Tanshinone IIA, tanshinone IIA] | could be detected | 27.7 ± 36.2 ng·h/mL | 8.15 ± 4.85 ng·h/mL | 1.61 ± 1.11 ng/mL | 26.8 ± 31.5 h | 5.48 ± 1.66 h | 0.54 ± 0.29 h | 11.4 ± 15.8 h | 83 ± 81 ng·h/mL | 35.4 ± 42.2 ng·h/mL | 4.18 ± 3.34 ng/mL | 27.2 ± 20.6 h | 5.75 ± 3.36 h | 3.17 ± 3.75 h | 13.2 ± 10.4 h | –
6 | CC(C)(O)CC[C@@H](O)[C@](C)(O)[C@H]1CC[C@@]2(O)C3=CC(=O)[C@@H]4C[C@@H](O)[C@@H](O)C[C@]4(C)[C@H]3CC[C@]12C [Ecdysterone, ecdysterone] | not detected | – | – | – | – | – | – | – | – | – | – | – | – | – | – | –
7 | C[C@H]1COC2=C1C(=O)C(=O)c1c2ccc2c1CCCC2(C)C [Cryptotanshinone, cryptotanshinone] | could be detected | 4.72 ± 5.99 ng·h/mL | 1.49 ± 0.76 ng·h/mL | 0.61 ± 0.23 ng/mL | 20.7 ± 27.7 h | 3.06 ± 1.47 h | 0.51 ± 0.4 h | 2.93 ± 3.89 h | 55.2 ± 59.8 ng·h/mL | 24.8 ± 27.9 ng·h/mL | 2.78 ± 2.52 ng/mL | 19 ± 17.5 h | 7.37 ± 3.95 h | 0.6 ± 0.2 h | 17.8 ± 17.1 h | half-life ([3]; 1.5 g kg^−1): 17.8 ± 17.1 h

Further lines, with some results ahead:

Row | Detection in rat plasma after oral administration of NXTC [3] | AUC(0-inf) ([3]; 0.5 g/kg) | AUC(0-t) ([3]; 0.5 g/kg) | Cmax ([3]; 0.5 g/kg) | MRT inf ([3]; 0.5 g/kg) | MRT last ([3]; 0.5 g/kg) | Tmax ([3]; 0.5 g/kg) | half-life ([3]; 0.5 g/kg) | AUC(0-inf) ([3]; 1.5 g/kg) | AUC(0-t) ([3]; 1.5 g/kg) | Cmax ([3]; 1.5 g/kg) | MRT inf ([3]; 1.5 g/kg) | MRT last ([3]; 1.5 g/kg) | Tmax ([3]; 1.5 g/kg) | half-life ([3]; 1.5 g/kg) | Molecule | other results
8 | not detected | – | – | – | – | – | – | – | – | – | – | – | – | – | – | OC[C@H]1O[C@@H](Oc2cc(O)cc(/C=C/c3ccc(O[C@@H]4O[C@H](CO)[C@@H](O)[C@H](O)[C@H]4O)cc3O)c2)[C@H](O)[C@@H](O)[C@@H]1O [Mulberroside A, mulberroside A] | –
9 | could be detected | 0.15 ± 0.09 ng·h/mL | 0.08 ± 0.05 ng·h/mL | 0.11 ± 0.05 ng/mL | 1.67 ± 1.53 h | 0.56 ± 0.23 h | 0.49 ± 0.33 h | 2.96 ± 5.61 h | 3.06 ± 3.07 ng·h/mL | 1.47 ± 1.82 ng·h/mL | 0.37 ± 0.32 ng/mL | 25.9 ± 31.8 h | 5.16 ± 3.68 h | 0.38 ± 0.25 h | 1.42 ± 0.69 h | COc1ccc(-c2coc3cc(O)ccc3c2=O)cc1 [Formononetin, formononetin] | AUC(0-t) [3]: < 1 ng·h/mL; Cmax [3]: < 1 ng/mL; Tmax [3]: < 1 h
10 | not detected | – | – | – | – | – | – | – | – | – | – | – | – | – | – | C[C@@]12C[C@@]3(O)O[C@@H](O1)[C@]1(COC(=O)c4ccccc4)[C@H]3C[C@@]12O[C@@H]1O[C@H](CO)[C@@H](O)[C@H](O)[C@H]1O [Paeoniflorin, paeoniflorin] | –
11 | – | 19.6 ± 21.1 ng·h/mL | 11.7 ± 9.6 ng·h/mL | 9.8 ± 4.4 ng/mL | 4.02 ± 4.96 h | 1.33 ± 1.19 h | 0.18 ± 0.03 h | 0.83 ± 0.33 h | 28.5 ± 20 ng·h/mL | 26 ± 18.6 ng·h/mL | 15.2 ± 3.08 ng/mL | 2.72 ± 1.82 h | 2.03 ± 1.43 h | 0.2 ± 0.04 h | 0.7 ± 0.35 h | O=C(O)/C=C/c1ccc(O)c(O)c1 [Caffeic acid, caffeic acid] | Tmax [3]: < 1 h
